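Five concentrations, 48 hours, 96-well plates. TGI: concentration producing complete growth inhibition.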
Assays:
Experiment in all cases: NCI anticancer screen, dose series, 48 h
[1] = system: MDA-MB-231 breast
[2] = system: HCT-116 colon
[3] = system: SK-MEL-28 melanoma
[4] = system: SR leukemia
[5] = system: BT-549 breast
[6] = system: SF-539 CNS
[7] = system: MOLT-4 leukemia
[8] = system: CCRF-CEM leukemia
[9] = system: A498 renal
[10] = system: HOP-62 NSCLC
[11] = system: EKVX NSCLC
[12] = system: COLO 205 colon
[13] = system: MDA-MB-435
[14] = system: A549 NSCLC
[15] = system: NCI/ADR-RES ovarian
[16] = system: HOP-92 NSCLC
[17] = system: U251 CNS
[18] = system: OVCAR-5 ovarian
[19] = system: NCI-H23 lung
[20] = system: 786-0 renal
[21] = system: TK-10 renal
[22] = system: RXF 393 renal
[23] = system: HCT-15 colon
[24] = system: M14 melanoma
[25] = system: NCI-H460 lung
[26] = system: SNB-75 CNS
[27] = system: SF-295 CNS
[28] = system: OVCAR-8 ovarian
[29] = system: SF-268 CNS
[30] = system: MDA-N
[31] = system: NCI-H522 lung
[32] = system: NCI-H226 lung
[33] = system: HS 578T breast
[34] = system: PC-3 prostate
[35] = system: K-562 leukemia
[36] = system: IGROV1 ovarian
[37] = system: SW-620 colon
[38] = system: OVCAR-4 ovarian
[39] = system: SK-OV-3 ovarian
[40] = system: MCF7 breast
[41] = system: CAKI-1 renal
[42] = system: HT29 colon
[43] = system: SNB-19 CNS
[44] = system: RPMI-8226 leukemia
[45] = system: T-47D breast
[46] = system: MALME-3M melanoma
[47] = system: HL-60(TB) leukemia
[48] = system: UACC-257 melanoma
[49] = system: DU-145 prostate
[50] = system: OVCAR-3 ovarian
[51] = system: UACC-62 melanoma
[52] = system: KM12 colon
[53] = system: LOX IMVI melanoma
[54] = system: SN12C renal
[55] = system: UO-31 renal
[56] = system: SK-MEL-5 melanoma
[57] = system: ACHN renal
[58] = system: SK-MEL-2 melanoma

O=C1CSC(c2ccccc2O)N1c1ccc(-c2ccc(-n3c(-c4ccccc4)nc4ccccc4c3=O)cc2)cc1 (centres undefined)
TGI [1]: > 100 µM | TGI [2]: > 100 µM | TGI [3]: > 100 µM | TGI [4]: > 100 µM | TGI [5]: 55.7 µM | TGI [6]: > 100 µM | TGI [7]: > 100 µM | TGI [8]: > 100 µM | TGI [9]: > 100 µM | TGI [10]: > 100 µM | TGI [11]: > 100 µM | TGI [12]: 44.9 µM | TGI [13]: > 100 µM | TGI [14]: 77.8 µM | TGI [15]: > 100 µM | TGI [16]: > 100 µM | TGI [17]: > 100 µM | TGI [18]: > 100 µM | TGI [19]: > 100 µM | TGI [20]: 60.9 µM | TGI [21]: 71 µM | TGI [22]: 91.9 µM | TGI [23]: > 100 µM | TGI [24]: > 100 µM | TGI [25]: > 100 µM | TGI [26]: > 100 µM | TGI [27]: 54.2 µM | TGI [28]: > 100 µM | TGI [29]: > 100 µM | TGI [30]: > 100 µM | TGI [31]: 44.7 µM | TGI [32]: > 100 µM | TGI [33]: > 100 µM | TGI [34]: 94.9 µM | TGI [35]: > 100 µM | TGI [36]: > 100 µM | TGI [37]: > 100 µM | TGI [38]: > 100 µM | TGI [39]: > 100 µM | TGI [40]: > 100 µM | TGI [41]: 69.1 µM | TGI [42]: 28.7 µM | TGI [43]: > 100 µM | TGI [44]: > 100 µM | TGI [45]: > 100 µM | TGI [46]: 49.3 µM | TGI [47]: > 100 µM | TGI [48]: > 100 µM | TGI [49]: > 100 µM | TGI [50]: > 100 µM | TGI [51]: > 100 µM | TGI [52]: 52.3 µM | TGI [53]: 77.4 µM | TGI [54]: > 100 µM | TGI [55]: > 100 µM

COC(=O)C1(NC(=O)C(CC(=O)OCc2ccccc2)NC(=O)OCc2ccccc2)CCCCCCC1 (centres undefined)
TGI [1]: > 100 µM | TGI [2]: > 100 µM | TGI [3]: > 100 µM | TGI [4]: > 100 µM | TGI [5]: > 100 µM | TGI [6]: > 100 µM | TGI [7]: > 100 µM | TGI [9]: 67.7 µM | TGI [10]: > 100 µM | TGI [11]: > 100 µM | TGI [12]: 82.7 µM | TGI [13]: > 100 µM | TGI [14]: > 100 µM | TGI [15]: > 100 µM | TGI [16]: > 100 µM | TGI [17]: > 100 µM | TGI [18]: > 100 µM | TGI [19]: > 100 µM | TGI [20]: > 100 µM | TGI [21]: > 100 µM | TGI [22]: > 100 µM | TGI [23]: > 100 µM | TGI [24]: > 100 µM | TGI [25]: > 100 µM | TGI [26]: > 100 µM | TGI [27]: > 100 µM | TGI [28]: > 100 µM | TGI [29]: > 100 µM | TGI [30]: > 100 µM | TGI [31]: > 100 µM | TGI [32]: 90.9 µM | TGI [33]: > 100 µM | TGI [34]: > 100 µM | TGI [35]: > 100 µM | TGI [56]: 29.4 µM | TGI [36]: > 100 µM | TGI [37]: > 100 µM | TGI [38]: > 100 µM | TGI [39]: > 100 µM | TGI [40]: > 100 µM | TGI [41]: > 100 µM | TGI [42]: > 100 µM | TGI [43]: > 100 µM | TGI [44]: 39.2 µM | TGI [57]: > 100 µM | TGI [45]: 94.2 µM | TGI [47]: 51.9 µM | TGI [49]: > 100 µM | TGI [50]: > 100 µM | TGI [51]: 63.2 µM | TGI [52]: > 100 µM | TGI [53]: > 100 µM | TGI [54]: > 100 µM | TGI [55]: > 100 µM

COc1ccc2c3c1O[C@H]1[C@@H](O)CC[C@@]4(O)[C@@H](C2)N(C)CC[C@]314
TGI [1]: > 100 µM | TGI [2]: > 100 µM | TGI [3]: > 100 µM | TGI [4]: > 100 µM | TGI [5]: > 100 µM | TGI [6]: > 100 µM | TGI [7]: > 100 µM | TGI [8]: > 100 µM | TGI [9]: > 100 µM | TGI [10]: > 100 µM | TGI [11]: > 100 µM | TGI [12]: > 100 µM | TGI [13]: > 100 µM | TGI [14]: > 100 µM | TGI [15]: > 100 µM | TGI [16]: > 100 µM | TGI [17]: > 100 µM | TGI [18]: > 100 µM | TGI [19]: > 100 µM | TGI [20]: > 100 µM | TGI [21]: > 100 µM | TGI [58]: > 100 µM | TGI [23]: > 100 µM | TGI [24]: > 100 µM | TGI [27]: > 100 µM | TGI [28]: > 100 µM | TGI [29]: > 100 µM | TGI [30]: > 100 µM | TGI [31]: > 100 µM | TGI [32]: > 100 µM | TGI [33]: > 100 µM | TGI [34]: > 100 µM | TGI [35]: > 100 µM | TGI [56]: > 100 µM | TGI [36]: > 100 µM | TGI [37]: > 100 µM | TGI [38]: > 100 µM | TGI [39]: > 100 µM | TGI [40]: > 100 µM | TGI [41]: > 100 µM | TGI [42]: > 100 µM | TGI [43]: > 100 µM | TGI [44]: > 100 µM | TGI [57]: > 100 µM | TGI [45]: > 100 µM | TGI [46]: > 100 µM | TGI [47]: > 100 µM | TGI [48]: > 100 µM | TGI [49]: > 100 µM | TGI [50]: > 100 µM | TGI [51]: > 100 µM | TGI [52]: > 100 µM | TGI [53]: > 100 µM | TGI [54]: > 100 µM | TGI [55]: > 100 µM

From PubChem BioAssay (NCI)
